Earlier results on 51 compounds are cited in patent US12100485B2, “Machine learning and molecular simulation based methods for enhancing binding and activity prediction” (The Board of Trustees of the Leland Stanford Junior …, priority 2018, dated 2024).

The subject of one data set is μOR.
Settings: not given
For `CO[C@@]12CCC(=O)[C@@H]3Oc4c(O)ccc5c4[C@@]31CCN(C)[C@@H]2C5` [14-methoxydihydromorphinone], the Action entry is “agonist”.
`CO[C@@]12CCC(=O)[C@]3(C)Oc4c(O)ccc5c4[C@@]31CCN(C)[C@@H]2C5` [14-methoxymetopon]: the Action entry is given as “agonist”.
Take `CCC(OC(C)=O)C(CC(C)N(C)C)(c1ccccc1)c1ccccc1` (stereo not drawn) [acetylmethadol]: the Action entry is recorded as “agonist”.
On to `C=CCC1CN(C)CCC1(OC(=O)CC)c1ccccc1` (stereo not drawn) [allylprodine], for which the Action entry was “agonist”.
As for `CC[C@@H](OC(C)=O)C(C[C@@H](C)N(C)C)(c1ccccc1)c1ccccc1` [alphacetylmethadol], the Action result is “agonist”.
`CC[C@@H](O)C(C[C@@H](C)N(C)C)(c1ccccc1)c1ccccc1` [alphamethadol]: the Action entry was “agonist”.
Consider `CCOC(=O)C1(c2ccccc2)CCN(CCc2ccc(N)cc2)CC1` [anileridine], for which the Action entry is recorded as “agonist”.
Turning to `NC(=O)c1cccc([C@H]2C[C@H]3CC[C@@H](C2)N3CCN(CC2CCCCC2)C(=O)[C@@H](O)CO)c1` [axelopran], the Action result is reported as “antagonist”.
For `CCOC(=O)C1(c2ccccc2)CCN(CCOCc2ccccc2)CC1` [benzethidine], the Action entry is “agonist”.
As to `COC(=O)/C=C/C(=O)N[C@@H]1CC[C@@]2(O)[C@H]3Cc4ccc(O)c5c4[C@@]2(CCN3CC2CC2)[C@H]1O5` [beta-funaltrexamine], the Action entry is listed as “antagonist”.
With `CC[C@H](OC(C)=O)C(C[C@@H](C)N(C)C)(c1ccccc1)c1ccccc1` [betacetylmethadol], the Action entry was “agonist”.
With `CC[C@H](O)C(C[C@@H](C)N(C)C)(c1ccccc1)c1ccccc1` [betamethadol], the Action entry is reported as “agonist”.
Consider `Oc1cccc([C@@]23CCCC[C@H]2CN(CC2CC2)CC3)c1` [ciprefadol], for which the Action result was “agonist”.
On to `O=C(/C=C/c1ccc(Cl)cc1)N[C@@]12CCC(=O)[C@@H]3Oc4c(O)ccc5c4[C@@]31CCN(CC1CC1)[C@@H]2C5` [clocinnamox], for which the Action result is given as “antagonist”.
`Oc1ccc2c3c1O[C@H]1[C@H](F)CC[C@@]4(O)[C@@H](C2)N(CC2CC2)CC[C@]314` [cyclofoxy]: the Action result is reported as “antagonist”.
With `COc1cccc2c1[C@]13CCN(CC4CC4)[C@H](C2)[C@]1(OC)CCC(=O)C3` [cyprodime], the Action entry is given as “antagonist”.
Take `CC(C)C[C@@H](NC(=O)[C@H](Cc1ccccc1)NC(=O)CNC(=O)[C@@H](C)NC(=O)[C@@H](N)Cc1ccc(O)cc1)C(=O)O` [dadle]: the Action entry was “agonist”.
With `C[C@@H](NC(=O)[C@@H](N)Cc1ccc(O)cc1)C(=O)NCC(=O)N(C)[C@@H](Cc1ccccc1)C(=O)NCCO` [damgo], the Action entry is “agonist”.
In the case of `CN1CC[C@]23c4c5ccc(O)c4O[C@H]2CCC[C@H]3[C@H]1C5` [desomorphine], the Action result is recorded as “agonist”.
As to `C[C@H](CN1CCOCC1)C(C(=O)N1CCCC1)(c1ccccc1)c1ccccc1` [dextromoramide], the Action result was “agonist”.
With `CCC(=O)O[C@](Cc1ccccc1)(c1ccccc1)[C@H](C)CN(C)C` [dextropropoxyphene], the Action result is on record as “agonist”.
In the case of `N#CC(CCN1CCC(C(=O)O)(c2ccccc2)CC1)(c1ccccc1)c1ccccc1` [difenoxin], the Action entry is on record as “agonist”.
`CN1CC[C@]23c4c5ccc(O)c4O[C@H]2[C@@H](O)CC[C@H]3[C@H]1C5` [dihydromorphine]: the Action result is given as “agonist”.
As for `CCOC(C(=O)OCCN(C)C)(c1ccccc1)c1ccccc1` [dimenoxadol], the Action result is listed as “agonist”.
Regarding `CCC(O)C(CC(C)N(C)C)(c1ccccc1)c1ccccc1` (stereo not drawn) [dimepheptanol], the Action result is recorded as “agonist”.
Turning to `CCOC(=O)C(CCN1CCOCC1)(c1ccccc1)c1ccccc1` [dioxaphetyl_butyrate], the Action result is “agonist”.
With `CCOC(=O)C1(c2ccccc2)CCN(CCC(C#N)(c2ccccc2)c2ccccc2)CC1` [diphenoxylate], the Action entry is “agonist”.
As for `CCC(=O)C(CC(C)N1CCCCC1)(c1ccccc1)c1ccccc1` (stereo not drawn) [dipipanone], the Action entry is on record as “agonist”.
Turning to `COc1ccc(CN(C(=O)[C@@H](N)Cc2c(C)cc(C(N)=O)cc2C)[C@@H](C)c2ncc(-c3ccccc3)[nH]2)cc1C(=O)O` [eluxadoline], the Action entry is on record as “agonist”.
For the compound `CN1CC[C@]2(C)C[C@@H](Cc3ccc(O)cc32)C1` [eptazocine], the Action entry is given as “antagonist”.
With `CCOC(=O)C1(c2ccccc2)CCCN(C)CC1` (stereo not drawn) [ethoheptazine], the Action entry is “agonist”.
In the case of `CCOC(=O)C1(c2ccccc2)CCN(CCOCCO)CC1` [etoxeridine], the Action entry is given as “agonist”.
Regarding `CCOC(=O)C1(c2ccccc2)CCN(CCOCC2CCCO2)CC1` (stereo not drawn) [furethidine], the Action result was “agonist”.
In the case of `CO[C@H]1C=C[C@H]2[C@H]3Cc4ccc(O)c5c4[C@@]2(CCN3C)[C@H]1O5` [heterocodeine], the Action entry is reported as “agonist”.
With `CN1CC[C@]23c4c5ccc(O)c4O[C@H]2[C@@H](O)CC[C@@]3(O)[C@H]1C5` [hydromorphinol], the Action result is “agonist”.
With `CCOC(=O)C1(c2cccc(O)c2)CCN(C)CC1` [hydroxypethidine], the Action result is recorded as “agonist”.
Turning to `O=C(N[C@@H]1CC[C@@]2(O)[C@H]3Cc4ccc(O)c5c4[C@@]2(CCN3CC2CC2)[C@H]1O5)c1cccc(I)c1` [ibntxa], the Action entry is “agonist”.
Take `CCC(=O)C(c1ccccc1)(c1ccccc1)C(C)CN(C)C` (stereo not drawn) [isomethadone]: the Action result is reported as “agonist”.
`CNC1(c2ccccc2Cl)CCCCC1=O` (stereo not drawn) [ketamine]: the Action entry is reported as “agonist”.
`CCC(=O)C1(c2cccc(O)c2)CCN(C)CC1` [ketobemidone]: the Action result was “agonist”.
`CN(C)[C@H](Cc1ccccc1)c1ccccc1` [lefetamine]: the Action entry is recorded as “agonist”.
For `CC[C@H](OC(C)=O)C(C[C@H](C)N(C)C)(c1ccccc1)c1ccccc1` [levacetylmethadol], the Action entry is on record as “agonist”.
For `CCC(=O)C(C[C@@H](C)N(C)C)(c1ccccc1)c1ccccc1` [levomethadone], the Action result was “agonist”.
As to `O=C(CN1CC[C@]23CCCC[C@H]2[C@H]1Cc1ccc(O)cc13)c1ccccc1` [levophenacylmorphan], the Action result is “agonist”.
Regarding `CN1CC[C@]23CCCC[C@H]2[C@H]1Cc1ccc(O)cc13` [levorphanol], the Action result is recorded as “agonist”.
On to `CN(C)C(=O)C(CCN1CCC(O)(c2ccc(Cl)cc2)CC1)(c1ccccc1)c1ccccc1` [loperamide], for which the Action result was “agonist”.
For `C[C@H]1CN(CC[C@H](O)C2CCCCC2)CC[C@@]1(C)c1cccc(O)c1` [ly-255582], the Action result is recorded as “antagonist”.
Take `CCC(=O)O[C@]1(c2ccccc2)CCN(C)C[C@@H]1CC` [meprodine]: the Action entry was “agonist”.
For the compound `CCC(=O)C(CC(C)N(C)C)(c1ccccc1)c1ccccc1` (stereo not drawn) [methadone], the Action result is recorded as “agonist”.

Staying with this data set, now noted: known pharmacology, training dataset.
As to `C[C@H]1CN(C[C@H](Cc2ccccc2)C(=O)NCC(=O)O)CC[C@@]1(C)c1cccc(O)c1` [alvimopan], the Action result is listed as “antagonist”.
Turning to `CN(C)CC(C)(C)C(=O)c1ccccc1` [dimethylaminopivalophenone], the Action entry was “agonist”.
